Results published in US12280063B2, “Anti-retroviral therapies and reverse transcriptase inhibitors for treatment of Alzheimer's disease” (Sanford Burnham Prebys Medical Discovery Institute, priority 2018, dated 2025).

How the values were obtained:
[1] = tested on: APP gencDNAs in CHO cells; assay: Induction of APP gencDNAs in APP 751-transfected CHO cells treated with hydrogen peroxide, genomic DNA PCR; assay type: cell-based; conditions: AZT 100 μM and ABC 10 μM given together, APP 751 transfection, hydrogen peroxide 0, 5 or 50 μM, FIG. 20B
Protocol: The method is graphically represented in FIG. 20A. CHO cells were serum-deprived for 2 days, followed by addition of reverse transcriptase (RT) inhibitors azidothymidine (AZT, 100 μM) and abacavir (ABC, 10 μM) (Tocris, Minneapolis, Minn.) until the end of the experiment. Medium was changed daily with fresh RT inhibitors. Cells were transfected with APP 751 by GenJet (SignaGen Laboratories, Gaithersburg, Md.) on day 3, then on day 4 cells were treated with 0 μM, 5 μM, or 50 μM of hydrogen peroxide (Fisher Scientific) for 2 hrs. After 1 day, cells were collected and genomic DNA was extracted for PCR analysis.

[2] = tested on: reverse transcriptase activity in CHO cell lysate; assay: In vitro reverse transcriptase activity assay in CHO cell lysate; assay type: biochemical; conditions: four independent experiments, FIG. 20E, read-out: IC50, decrease of reverse transcriptase activity
Protocol: In one example, lysates were prepared in reverse transcriptase disruption buffer and contained Complete™, EDTA-free Protease Inhibitor Cocktail (Sigma-Aldrich, St. Louis, Mo.) and PhosSTOP™ phosphatase inhibitors (Sigma-Aldrich, St. Louis, Mo.). One microgram of extract was used in the reverse transcription step of the assay. Reverse transcription was carried out at 37° C. for 45 min, followed by 15 min at 70° C. The RT product of this first step was assayed in triplicate by quantitative PCR. Levels of reverse transcription activity were determined by the Delta Cq method, compared to the activity in negative controls (water and no nucleotides) that were given Cq scores of 40. 1×10^5 picounits of SuperScript™ II Reverse Transcriptase (ThermoFisher Scientific) were used as a positive control for the assay. Lysates for heat inactivation experiments were incubated for 15 min at 70° C. prior to the reverse transcription step. For inhibitor experiments, lysates were incubated with inhibitor in the presence of all the components of the reaction except for dNTPs. After 10 min at room temperature, dNTPs were added and the reaction was incubated at 37° C. as above. AZT-TP was purchased from TriLink Biotechnologies (San Diego, Calif.).
In another example, the in vitro reverse transcriptase activity assay was conducted with reagents and protocol as shown in Tables 8-11.

Nc1nc(NC2CC2)c2ncn([C@H]3C=C[C@@H](CO)C3)c2n1 [abacavir]
production of APP gencDNAs under nucleoside reverse transcriptase inhibitors [1]: also required to produce gencDNAs

azidothymidine triphosphate [AZT-TP]
IC50 [2]: 18.5 µM
